This note sets out measurements from patent EP0926242A1, “GLIOTOXIN DERIVATIVES AND ANTICANCER AGENT COMPRISING THE SAME” (priority 1996, dated 1998).

For assay [1], the system named is Human carcinoma of the colon cell strain HCT-116. Kind of assay: Tertiary culture using test human cancer, killed cells by MTT method. The settings on record: incubated 3 days. The class given is cell-based. How it is done: Tertiary cultures were carried out using a human carcinoma of the colon tissue in stage 2b. The tertiary cultures were carried out according to the reported method (Int.J.Cancer Res., 82, 607-612 (1991), Gan to Kagakuryoho, 18, 239-243 (1991), Gan to Kagakuryoho, 19, 743-748 (1992)). The extracted tissue of carninoma of the colon was cut into square pieces having a side of about 2 mm, and incubated in a RPMI- 1640 medium containing 10 % fetal calf serum under 5 % CO2 at 37 °C for 3 days. Existing anticancer agents or acetylgliotoxin were diluted and added, and further incubated for 3 days. Then, the rate of killed cells was determined by the MTT method. The tertiary cultures using the test human cancer were carried out as follows: Human carcinoma of the colon cell strain HCT-116 was transplanted into the subcutaneous tissue of a nude mouse (Balb nu/nu) to induce tumor. The cancer tissue was extracted from the tumor-induced portion, and cut into square pieces having a side of 2 mm. The evaluation of the existing anticancer agents and acetylyliotoxin was earried out according to the aforementioned method.
For orientation: Formazan colour is commonly taken as a measure of viable cells.

Assay [2] has as its system mouse carcinoma of the colon cells colon 26. Kind of assay: Anticancer effect in vivo against colon 26 (Example 9 A). The settings on record: CDFI mice. The method, then:
(§1) • (A) Evaluationin vivo using mouse carcinoma of the colon cells colon 26 CDFI mice (female : 4 weks age) were bought, and colon 26 subcultured in the subcutaneous tissue of the mouse was taken out, and cut into small pieces by a scissors. The cancer cells were transplanted into subcutaneous tisue of CDFI mice by a trucker. The day was assigned 0 day, and the tumor was measured by a slide caliper after 7 days. The volume of the tumor was calculated, and divided into groups (each group : n = 4). The text compound was dissolved in dimethylsulfoxide, and diluted with 5 % Tween 80- saline aqueous solution. […] The administration was carried out after 7 days, after 11 days and after 15 days or after 7 days and after 8 days from the transplantation at a rate of once per one day. 21st day from the transplantation, the volume of tumor was measured and the volume of tumor and the inhibition against tumor multiplication rate (I.R.) were calculated. The volume of tumor was calculated by the following formula. (Tumore Volume [mm)^3 (]= Minor Axis [mm])^2 × Major Axis [mm] × (1/2) [formula] • The inhibition against tumor multiplication rate (I.R.) was calculated by the following formula. I.R. [%] = {1- (Average Tumor Volume of Administration Group / Average Tumor Volume of Control Group)) × 100 [formula] • (B) Evaluation in vivo using human carcinoma of the colon cells HCT-116 Balb/c nu/nu mice (female : 5 weks age) were bought, and HCT-116 (Dainippon Seiyaku) subcultured in the subcutaneous tissue of the mouse was taken out, and cut into small pieces by a scissors. The cancer cells were transplanted into subcutaneous tissue of […] mice by a trucker. The day was assigned 0 day, and the tumor was measured by a slide caliper after 7 days. The volume of the tumor was calculated, and divided into groups (each group : n = 2). The text compound was dissolved in dimethylsulfoxide, and diluted with 5 % Tween 80- saline aqueous solution. […] The administration was carried out after 7 days, after 11 days and after 15 days from the transplantation at a rate of once per one day. 21st day from the transplantation, the volume of tumor was measured and the volume of tumor and the inhibition against tumor multiplication rate (I.R.) were calculated by the above formulas.

Assay [3] deals with human carcinoma of the colon cells HCT-116. Kind of assay: Anticancer effect in vivo against HCT 116 (Example 9 B). The settings on record: 5 [mg/kg]×3 (i.p.), 7,11,15th days, Balb/c nu/nu mice. Also on record: species or system mouse. How it is done: as §1
Assay [4] concerns mouse carcinoma of the colon cells colon 26. Kind of assay: Evaluation of cytotoxity of synthesized derivatives by the MTT method (Example 8). The assay is classed as cell-based. The settings on record: for IC50: Mus musculus. How it is done:
(§2) Antitumor activity of the synthesized derivatives against various cancer cells was measured by the MTT method. The cancer cells used were mouse carcinoma of the colon cells colon 26 (Gan Kenkyu-sho, Gan Kenkyu-kai) and mouse leukemia cells P388 (Dai-Nippon Seiyaku), and the culture medium contained 10 % fetal calf serum. Each cells were placed in each well of 96 well microplate n an amount of […]/50 µL/well and 50 µL of a test compound aqueous solution in each concentration was added. After incubating at 37 °C for 3 days, the number of survival cells was measured by the MTT method, and a dose-reaction curve was made. Thereby, the concentration of each test compound inhibiting multiplication at a rate of 50 % (IC50) was calculated.

Assay [5] relates to mouse leukemia cells P388. The assay is described as above. The assay is classed as cell-based. The settings on record: for IC50: Mus musculus, read-out: P388 IC50[ng/mL]. How it is done:
as §2

[6] abbreviates: 10 [mg/kg]×2 (i.v.), 7, 14th days.
Where [7] appears, read: 72 h, colon 26, 3 days, MTT, read-out: colon 26 IC 50.
The mark [8] stands for this setting: 2.5[mg/kg]×3 (i.p.), 7,11,15th days.
Where [9] appears, read: 5 [mg/kg]×3 (i.p.), 7,11,15th days.
Setting [10] is: 10 [mg/kg]×2 (i.p.), 7,8th days.

Molecules are shown by their SMILES. In brackets after ≈: the same amount, converted by molar mass. Read-outs that look alike come from different tables or passages of the source.

As for `O=c1[nH]cc(F)c(=O)[nH]1` [5-F U, 5-Fluorouracil], the “I. R. (%)” value in assay [1] (conc. 500 ug/mL) is 38%.

For the molecule `COc1cccc2c1C(=O)c1c(O)c3c(c(O)c1C2=O)C[C@@](O)(C(=O)CO)C[C@@H]3O[C@H]1C[C@H](N)[C@H](O)[C@H](C)O1` [Adriamycin, reference compound], the “I. R. (%)” value in assay [1] (conc. 6 ug/mL) came to 0%. Besides, in assay [2] (setting [6]), the “I.R. (21st day)” value was 38.9% and the I.R.Max came out at 38.9%.

As to `[NH2][Pt]([NH2])([Cl])[Cl]` [CDDP, Cisplatin, reference compound], the “I. R. (%)” value in assay [1] (conc. 25 ug/mL) worked out at 6%. For the same molecule, in assay [3], the “I.R. (21st day)” value turned out to be 15.6% and the I.R.Max came to 47.5%.

For the molecule `CN1C(=O)[C@]23Cc4ccccc4N2C(=O)[C@]1(CO)SS3` [Compound of Example 3, (3S, 10aR)―2,3-dihydro―3―(hydroxymethyl)―2― methyl―10H―3,10a―epidithiopyrazino[1,2―a]indole― 1,4―dione], the IC50 in assay [4] (setting [7]) was found to be 58 ng/mL (≈ 0.188 µM); in assay [5] (72 h, P388, 3 days, MTT), 3.2 ng/mL (≈ 0.0104 µM). Besides, the “I.R. (21st day)” value in assay [2] (setting [8]) worked out at 35.2%; in assay [2] (setting [9]) it was 43.7%. In addition, the I.R.Max in assay [2] (setting [8]) was 35.3%; in assay [2] (setting [9]) it was 51.6%.

Take `CN1C(=O)[C@]23Cc4cccc(O)c4N2C(=O)[C@]1(CO)SS3` [Compound of Example 4, (3S, 10aR)―2,3―dihydro―6―hydroxy―3―(hydroxymethyl)― 2―methyl―10H―3,10a―epidithiopyrazino[1,2―a]indole― 1,4―dione]: the IC50 in assay [4] (Colon 26, 72 h, read-out: colon 26 IC 50 [ng/mL]) was 110 ng/mL (≈ 0.339 µM); in assay [5] (P388, 72 h), 21 ng/mL (≈ 0.0647 µM). Besides, the “I.R. (21st day)” value was 40.1% in assay [2] (setting [8]), 52.9% in assay [2] (setting [9]), 43.5% in assay [2] (setting [10]) and 63.8% in assay [3]. Besides, the I.R.Max was found to be 54.5% in assay [2] (setting [8]), 58.9% in assay [2] (setting [9]), 79.8% in assay [2] (setting [10]) and 66.5% in assay [3].

With `CC(=O)Oc1cccc2c1N1C(=O)[C@]3(CO)SS[C@]1(C2)C(=O)N3C` [Compound of Example 5, (3 S, 10aR)―6―acetoxy―2,3―dihydro―3―(hydroxymethyl)― 2―methyl―10H―3,10a―epidithiopyrazino[1,2―a]indole―1, 4―dione], the IC50 in assay [4] (setting [7]) was determined as 74 ng/mL (≈ 0.202 µM); in assay [5] (72 h, P388, 3 days, MTT), 13 ng/mL (≈ 0.0355 µM).

For the molecule `CN1C(=O)[C@]23Cc4cccc(OCC#N)c4N2C(=O)[C@]1(CO)SS3` [Compound of Example 6, (3S, 10aR)―6―(cyanomethoxy)―2,3―dihydro―3― (hydroxymethyl)―2―methyl―10H-3,10a―a― epidithiopyrazino[1,2―a]indole―1,4―dione], in assay [4] (colon 26, 3 days, MTT), the “colon 26 IC 50” value was determined as 0.07 µg/mL. In addition, in assay [5] (P388, 3 days, MTT), the “P388 IC50[ng/mL]” value was found to be 5.8 ng/mL.

On to `COC(=O)COc1cccc2c1N1C(=O)[C@]3(CO)SS[C@]1(C2)C(=O)N3C` [Compound of Example 7, (3S, 10aR)―2,3―dihydro―3― (hydroxymethyl)―6―[(methoxycarbonyl)methyloxy]―2― methyl―10H―3,10a―epidiopyrazino[1,2―a]indole―1,4― dione], for which the “colon 26 IC 50” value in assay [4] (colon 26, 3 days, MTT) stood at 0.082 µg/mL.

On to `CN1C(=O)[C@]23CC4=CC=C[C@H](O)[C@H]4N2C(=O)[C@@]1(CO)SS3` [Gliotoxin, gliotoxin], for which the figures for the “I. R. (%)” value in assay [1] (conc. 12.5 ug/mL) and in assay [1] (conc. 25 ug/mL) were 28% and 66%, respectively.

Turning to `CO[C@@]12[C@H](COC(N)=O)C3=C(C(=O)C(C)=C(N)C3=O)N1C[C@@H]1N[C@@H]12` [M M C, Mitomycin C], in assay [1] (conc. 15 ug/mL), the “I. R. (%)” value is reported as 34%.

Turning to `CC(=O)O[C@H]1C(=O)[C@@]2(C)[C@H]([C@H](OC(=O)c3ccccc3)[C@]3(O)C[C@H](OC(=O)[C@H](O)[C@@H](NC(=O)c4ccccc4)c4ccccc4)C(C)=C1C3(C)C)[C@]1(OC(C)=O)CO[C@@H]1C[C@@H]2O` [T A X O L, Taxol], in assay [1] (conc. 100 ug/mL), the “I. R. (%)” value came out at 19%.

Take `CC[C@]1(O)C[C@@H]2CN(CCc3c([nH]c4ccccc34)[C@@](C(=O)OC)(c3cc4c(cc3OC)N(C)[C@H]3[C@@](O)(C(=O)OC)[C@H](OC(C)=O)[C@]5(CC)C=CCN6CC[C@]43[C@@H]65)C2)C1` [Vinblastine]: the “I. R. (%)” value in assay [1] (conc. 100 ug/mL) came to 20%.
